Source: US10787472B2, “Prodrugs of pyridone amides useful as modulators of sodium channels” (VERTEX PHARMACEUTICALS INCORPORATED, priority 2013, dated 2020)
Values belong to the compound of their own block, whether it stands above or below them.

Experiments:
[1] = Chemical and physical stability of crystalline Form B (XRPD, HPLC impurity profile, appearance); format: physicochemical
From the text: Chemically and physically stable means no changes were observed on the X-ray powder diffraction and HPLC impurity profiles (e.g., less than 0.2% variance) and there were no observed changes in physical appearance of the samples.

[2] = Aqueous solubility study; format: physicochemical; settings: ambient conditions, 24 hours
Experimental: The aqueous solubility of compound 9 and 9a were determined according to the following procedure. Solubility data was determined at ambient conditions by equilibrating the compound with water on a shaking bed for 24 hours, followed by centrifugation and separation of the saturated solutions. The pH value of each media was measured before centrifugation, and the saturated solutions were assayed by HPLC.

[3] = Rat oral pharmacokinetic study; format: in vivo, Sprague Dawley rats; settings: for Cmax: male rat, analyte 9a in plasma, 5% TPGS/5% PVP-K30/50 mM Citrate pH5, mean ± SD, N=3
Experimental: (§1) Before extraction, plasma samples were diluted using blank plasma at an appropriate dilution factor, as necessary, depending on the dose level. […] After centrifugation, the supernatant extract (10 μL) was injected onto the LC/MS/MS system. The HPLC system included a Phenomenex Synergy Kinetix C8 column, 2.6 micron, 2.0 mm diameter×75 mm long eluted with a gradient mobile phase consisting of 0.1% formic acid in water or in acetonitrile.
(§2) The analytes were detected by MS/MS with Electrospray Ionization (ESI) in the mode of multiple reaction monitoring (MRM). […] The intra-day and inter-day assay accuracy was within 20% of the nominal values. The intra- and inter-day assay variability was ≤20%.
(§3) Key pharmacokinetic parameters such as AUCall, AUCextra, Cmax, tmax, Cl, Vss and t1/2 were determined.
(§4) Descriptive statistical data of pharmacokinetic parameters were calculated, including the mean, standard deviation (SD), using Watson LIMS version 7.4 SP3 or Microsoft Excel 2000.
Groups of male and female Sprague Dawley rats (n=3 per dose group) were administered single nominal oral doses of 10, 100, 400, 640, 1000 mg/kg (for males) and 30, 100, 300, 640, 1000 mg/kg (for females) of compound 9 by gavage. Compound 9 was formulated in either 30% PEG400 and 10% TPGS in water or 5% TPGS, 5% PVP-K30 in 50 mM Citrate, pH 5. Animals had free access to food and water before and after dosing. Blood samples (approximately 0.25 mL each) were collected via a carotid artery catheter prior to dosing and at 0.25, 0.5, 1, 2, 4, 8, 12, 24, 48 and 72 hours post dose. Each blood sample was collected into a tube that was kept on wet ice and contained potassium EDTA as the anticoagulant. Plasma was separated and stored at approximately −70° C. until analysis.

[4] = Monkey oral pharmacokinetic study; format: in vivo, cynomolgus monkeys
Experimental: as §1, §2, §3, §4
Male or female cynomolgus monkeys (n=3 per dose group) were administered single nominal PO doses of 10, 40, 100, 300, 500, 750 and 1000 mg/kg of compound 9 by gavage. Compound 9 was formulated in 30% PEG400 and 10% TPGS in water or 5% TPGS, 5% PVP-K30 in 50 mM Citrate, pH 5. Animals were fasted overnight prior to dosing, and were fed two hours post dose. Water was available before and after dosing. […]

[5] = Rat IV pharmacokinetic study; format: in vivo, Sprague Dawley rats; settings: male rat, after IV bolus 1 mg/kg compound 9; LLOQ 2.5 ng/mL
Experimental: as §1, §2, §3, §4
Male Sprague Dawley rats (n=3) were administered a single nominal IV bolus dose of 1 mg/kg of compound 9 via a jugular vein cannula. […] Animals had free access to food and water before and after dosing. Blood samples (approximately 0.25 mL each) were collected via a carotid artery catheter prior to dosing and at 5 min, 10 min, 0.25, 0.5, 1, 2, 4, 8, 12, 24 hours post dose. […]

Compound: Cc1cc(F)ccc1Oc1cc(C(F)(F)F)ccc1C(=O)Nc1ccn(COP(=O)(O)O)c(=O)c1 [crystalline Form B, (4-(2-(4-fluoro-2-methylphenoxy)-4-(trifluoromethyl)benzamido)-2-oxopyridin-1(2H)-yl)methyl dihydrogen phosphate]
chemical and physical stability ([1]; 5° C./dry, 40° C./dry, 25° C. with RH up to 60%, 40° C. with RH up to 75%): chemically and physically stable for at least one month
chemical and physical stability ([1]; open dish 40° C., 40° C./RH up to 75%, 25° C./RH up to 60%, closed dish 5° C. with desiccator): chemically and physically stable for at least three months

Solubility ([2]; pH 1.2, crystalline): <1 µg/mL
Solubility ([2]; water, pH 6.0, crystalline): <1 µg/mL
Cmax ([3]; Sprague-Dawley, compound 9 PO 100 mg/kg): 1670 ± 1.9 ng/mL
Cmax ([3]; compound 9 PO 1000 mg/kg): 4540 ± 910 ng/mL
Compound: Cc1cc(F)ccc1Oc1cc(C(F)(F)F)ccc1C(=O)Nc1cc[nH]c(=O)c1 [Compound 9a, 2-(4-fluoro-2-methylphenoxy)-N-(2-oxo-1,2-dihydropyridin-4-yl)-4-(trifluoromethyl)benzamide]

in vivo conversion of prodrug to parent compound ([4]; monkeys): converted in vivo into compound 9a
in vivo conversion of prodrug to parent compound ([3]; rats): converted in vivo into compound 9a
Compound: Cc1cc(F)ccc1Oc1cc(C(F)(F)F)ccc1C(=O)Nc1ccn(COP(=O)(O)O)c(=O)c1 [Compound 9, (4-(2-(4-fluoro-2-methylphenoxy)-4-(trifluoromethyl)benzamido)-2-oxopyridin-1(2H)-yl)methyl dihydrogen phosphate]
plasma concentrations of compound 9 ([4]; monkey, after PO compound 9 10-1000 mg/kg, LLOQ 10.0 to 25.0 ng/mL): below LLOQ for the majority of the samples
plasma concentrations of compound 9 ([3]; rat, after PO compound 9 10-1000 mg/kg, LLOQ 2.5 to 25 ng/mL): below LLOQ for the majority of the samples
plasma concentrations of compound 9 [5]: below LLOQ for the majority of the samples
